Patent publication US11572590B2, “Methods for evaluating tumor cell spheroids using 3D microfluidic cell culture device” (Dana-Farber Cancer Institute, Inc., priority 2017, dated 2023)
Like-named read-outs stand apart in the source and are kept apart here.

Tests used:
Assay in all cases: SelectScreen Kinase Profiling, single point inhibition and IC50 for off-target kinases
Format in all cases: biochemical
off-target kinases [1] = target: off-target kinases (Homo sapiens, UniProt P06241)
off-target kinases [2] = target: T1, off-target kinases (Homo sapiens, UniProt O94806); conditions: PRKCN (PKD3), ATP Km app, ZLYTE
T1 sequence (O94806 1-890): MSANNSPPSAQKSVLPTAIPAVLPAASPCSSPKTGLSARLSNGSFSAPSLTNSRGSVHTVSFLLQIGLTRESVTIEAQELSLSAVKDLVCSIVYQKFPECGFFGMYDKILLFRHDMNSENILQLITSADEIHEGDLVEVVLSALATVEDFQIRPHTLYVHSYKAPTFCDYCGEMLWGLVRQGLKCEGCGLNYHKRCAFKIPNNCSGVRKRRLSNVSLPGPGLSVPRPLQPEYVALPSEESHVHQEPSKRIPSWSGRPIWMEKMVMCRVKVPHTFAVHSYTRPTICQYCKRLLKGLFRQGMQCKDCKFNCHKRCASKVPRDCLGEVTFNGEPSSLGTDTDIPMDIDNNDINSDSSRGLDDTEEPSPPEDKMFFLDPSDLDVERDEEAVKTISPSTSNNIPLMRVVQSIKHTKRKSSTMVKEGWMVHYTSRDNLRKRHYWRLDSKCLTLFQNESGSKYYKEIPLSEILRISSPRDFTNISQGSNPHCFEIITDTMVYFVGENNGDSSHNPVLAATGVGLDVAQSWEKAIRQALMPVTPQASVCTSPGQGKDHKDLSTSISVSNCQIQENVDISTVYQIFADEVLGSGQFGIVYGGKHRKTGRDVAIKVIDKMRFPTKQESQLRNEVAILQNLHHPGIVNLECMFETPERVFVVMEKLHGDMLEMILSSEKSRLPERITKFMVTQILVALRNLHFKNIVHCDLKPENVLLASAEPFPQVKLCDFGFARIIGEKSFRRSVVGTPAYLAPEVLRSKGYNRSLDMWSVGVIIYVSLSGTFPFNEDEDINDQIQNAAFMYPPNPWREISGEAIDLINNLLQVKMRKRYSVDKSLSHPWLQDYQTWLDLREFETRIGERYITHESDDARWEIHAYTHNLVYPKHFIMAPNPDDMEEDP

off-target kinases [3] = target: off-target kinases (Homo sapiens, UniProt P53355); conditions: DAPK1, ATP Km app, Adapta
Sequence of off-target kinases (Homo sapiens, UniProt P53355) (P53355 whole entry): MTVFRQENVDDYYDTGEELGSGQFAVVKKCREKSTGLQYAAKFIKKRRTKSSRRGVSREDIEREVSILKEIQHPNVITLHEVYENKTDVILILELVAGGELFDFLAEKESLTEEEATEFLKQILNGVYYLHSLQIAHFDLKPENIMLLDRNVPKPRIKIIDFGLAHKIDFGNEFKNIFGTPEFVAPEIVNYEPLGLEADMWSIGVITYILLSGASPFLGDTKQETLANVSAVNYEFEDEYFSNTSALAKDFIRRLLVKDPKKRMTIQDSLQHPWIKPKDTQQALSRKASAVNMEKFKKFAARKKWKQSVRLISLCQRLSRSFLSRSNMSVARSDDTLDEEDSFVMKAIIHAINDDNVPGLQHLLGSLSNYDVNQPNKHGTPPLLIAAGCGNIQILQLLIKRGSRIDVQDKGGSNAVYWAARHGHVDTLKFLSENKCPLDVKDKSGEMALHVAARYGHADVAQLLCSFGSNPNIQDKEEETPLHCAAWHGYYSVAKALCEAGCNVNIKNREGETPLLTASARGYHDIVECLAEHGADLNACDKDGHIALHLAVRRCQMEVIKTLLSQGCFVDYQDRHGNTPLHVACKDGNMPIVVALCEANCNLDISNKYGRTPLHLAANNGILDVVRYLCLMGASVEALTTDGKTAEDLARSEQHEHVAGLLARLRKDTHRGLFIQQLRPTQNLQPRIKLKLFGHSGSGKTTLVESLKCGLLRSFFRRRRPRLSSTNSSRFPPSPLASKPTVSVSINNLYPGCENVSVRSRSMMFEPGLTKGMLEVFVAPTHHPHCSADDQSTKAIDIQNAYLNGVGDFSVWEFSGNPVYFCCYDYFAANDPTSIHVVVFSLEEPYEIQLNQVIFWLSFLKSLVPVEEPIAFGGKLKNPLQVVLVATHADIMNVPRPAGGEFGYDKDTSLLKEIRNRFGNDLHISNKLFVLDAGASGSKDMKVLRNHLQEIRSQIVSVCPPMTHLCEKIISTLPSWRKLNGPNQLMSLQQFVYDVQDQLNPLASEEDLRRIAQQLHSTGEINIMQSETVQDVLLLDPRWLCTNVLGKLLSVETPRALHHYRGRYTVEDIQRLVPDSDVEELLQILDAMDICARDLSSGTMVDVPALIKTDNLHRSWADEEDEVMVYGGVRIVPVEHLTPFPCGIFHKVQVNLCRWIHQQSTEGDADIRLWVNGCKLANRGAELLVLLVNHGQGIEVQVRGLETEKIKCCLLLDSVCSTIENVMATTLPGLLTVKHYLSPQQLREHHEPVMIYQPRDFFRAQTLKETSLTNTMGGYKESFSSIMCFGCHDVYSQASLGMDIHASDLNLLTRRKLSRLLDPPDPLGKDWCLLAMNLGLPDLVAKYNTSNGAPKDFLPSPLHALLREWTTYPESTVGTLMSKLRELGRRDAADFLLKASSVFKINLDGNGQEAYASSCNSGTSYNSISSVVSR

off-target kinases [4] = target: off-target kinases (Homo sapiens, UniProt P24941)
off-target kinases [5] = target: off-target kinases (Homo sapiens, UniProt Q9P0L2); conditions: MARK1 (MARK), ATP Km app, ZLYTE
Sequence of off-target kinases (Homo sapiens, UniProt Q9P0L2) (Q9P0L2 whole entry): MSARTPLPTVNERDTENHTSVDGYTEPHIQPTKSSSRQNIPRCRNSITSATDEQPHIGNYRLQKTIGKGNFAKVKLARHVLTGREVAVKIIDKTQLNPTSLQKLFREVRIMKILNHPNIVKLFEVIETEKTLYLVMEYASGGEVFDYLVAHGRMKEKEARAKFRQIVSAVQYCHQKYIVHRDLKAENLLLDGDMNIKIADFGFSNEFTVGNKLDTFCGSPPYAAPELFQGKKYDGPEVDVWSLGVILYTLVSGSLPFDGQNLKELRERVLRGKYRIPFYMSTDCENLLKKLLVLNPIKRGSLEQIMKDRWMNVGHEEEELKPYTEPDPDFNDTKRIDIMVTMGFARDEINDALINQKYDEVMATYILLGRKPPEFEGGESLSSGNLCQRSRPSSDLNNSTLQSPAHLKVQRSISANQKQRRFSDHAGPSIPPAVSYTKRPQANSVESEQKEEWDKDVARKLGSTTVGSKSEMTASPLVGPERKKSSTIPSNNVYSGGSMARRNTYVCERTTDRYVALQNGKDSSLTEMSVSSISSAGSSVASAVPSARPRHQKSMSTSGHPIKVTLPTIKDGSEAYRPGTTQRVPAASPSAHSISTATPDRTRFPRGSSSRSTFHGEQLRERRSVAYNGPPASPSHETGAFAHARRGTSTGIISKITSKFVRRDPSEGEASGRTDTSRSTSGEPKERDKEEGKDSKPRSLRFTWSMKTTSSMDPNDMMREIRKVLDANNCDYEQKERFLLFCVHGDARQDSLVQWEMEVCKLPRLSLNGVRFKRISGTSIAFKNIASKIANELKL

off-target kinases [6] = target: off-target kinases (Homo sapiens, UniProt P10721, D816H); conditions: KIT D816H, LanthaScreen Binding
Sequence of off-target kinases (Homo sapiens, UniProt P10721, D816H) (P10721 26-976 D816H): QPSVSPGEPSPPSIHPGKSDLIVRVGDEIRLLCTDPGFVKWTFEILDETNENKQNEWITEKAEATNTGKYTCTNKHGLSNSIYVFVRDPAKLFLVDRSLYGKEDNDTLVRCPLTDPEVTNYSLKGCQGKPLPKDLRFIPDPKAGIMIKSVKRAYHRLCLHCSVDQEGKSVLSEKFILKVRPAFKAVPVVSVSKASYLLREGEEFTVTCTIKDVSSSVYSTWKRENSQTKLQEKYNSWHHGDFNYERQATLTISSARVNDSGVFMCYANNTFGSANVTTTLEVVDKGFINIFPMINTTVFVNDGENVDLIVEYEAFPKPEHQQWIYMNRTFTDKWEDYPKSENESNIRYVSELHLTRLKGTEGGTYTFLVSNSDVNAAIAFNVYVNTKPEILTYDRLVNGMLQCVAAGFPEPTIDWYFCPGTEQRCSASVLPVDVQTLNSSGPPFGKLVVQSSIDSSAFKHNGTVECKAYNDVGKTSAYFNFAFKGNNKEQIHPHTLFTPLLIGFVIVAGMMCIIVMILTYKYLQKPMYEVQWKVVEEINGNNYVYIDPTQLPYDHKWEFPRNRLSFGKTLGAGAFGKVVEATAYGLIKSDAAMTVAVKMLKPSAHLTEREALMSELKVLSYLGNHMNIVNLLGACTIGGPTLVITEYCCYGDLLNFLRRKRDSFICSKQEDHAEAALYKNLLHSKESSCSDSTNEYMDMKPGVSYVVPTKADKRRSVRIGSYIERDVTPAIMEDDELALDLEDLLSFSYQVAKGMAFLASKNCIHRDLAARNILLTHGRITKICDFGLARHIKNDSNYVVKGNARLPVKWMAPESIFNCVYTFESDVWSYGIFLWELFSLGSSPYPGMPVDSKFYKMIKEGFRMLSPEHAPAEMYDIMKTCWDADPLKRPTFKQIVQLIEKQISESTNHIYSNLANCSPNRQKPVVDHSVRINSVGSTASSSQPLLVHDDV

off-target kinases [7] = target: off-target kinases (Homo sapiens, UniProt P16591); conditions: FER, ZLYTE, ATP Km app
Sequence of off-target kinases (Homo sapiens, UniProt P16591) (P16591 whole entry): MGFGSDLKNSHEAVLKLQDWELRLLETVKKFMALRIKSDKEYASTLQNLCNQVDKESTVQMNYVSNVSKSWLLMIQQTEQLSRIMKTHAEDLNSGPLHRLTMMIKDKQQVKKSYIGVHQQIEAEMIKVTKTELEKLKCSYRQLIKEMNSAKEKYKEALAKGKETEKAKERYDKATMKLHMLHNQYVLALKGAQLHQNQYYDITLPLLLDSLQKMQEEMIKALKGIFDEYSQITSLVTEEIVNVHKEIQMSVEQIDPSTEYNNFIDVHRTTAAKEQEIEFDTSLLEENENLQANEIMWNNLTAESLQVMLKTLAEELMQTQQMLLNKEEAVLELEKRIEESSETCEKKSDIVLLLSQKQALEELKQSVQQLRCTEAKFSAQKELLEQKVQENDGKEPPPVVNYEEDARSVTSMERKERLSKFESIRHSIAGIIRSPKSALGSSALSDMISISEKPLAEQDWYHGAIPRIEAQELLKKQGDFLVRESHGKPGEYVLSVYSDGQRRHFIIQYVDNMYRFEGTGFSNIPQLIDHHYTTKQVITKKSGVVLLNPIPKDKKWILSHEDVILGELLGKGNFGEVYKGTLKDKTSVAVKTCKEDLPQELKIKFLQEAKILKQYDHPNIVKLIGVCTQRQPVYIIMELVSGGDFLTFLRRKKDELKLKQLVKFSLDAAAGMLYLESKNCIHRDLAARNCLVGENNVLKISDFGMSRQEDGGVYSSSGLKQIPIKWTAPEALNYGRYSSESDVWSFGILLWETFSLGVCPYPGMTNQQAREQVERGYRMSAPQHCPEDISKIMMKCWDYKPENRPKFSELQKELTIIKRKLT

Sequence of off-target kinases (Homo sapiens, UniProt P06241) (P06241 whole entry): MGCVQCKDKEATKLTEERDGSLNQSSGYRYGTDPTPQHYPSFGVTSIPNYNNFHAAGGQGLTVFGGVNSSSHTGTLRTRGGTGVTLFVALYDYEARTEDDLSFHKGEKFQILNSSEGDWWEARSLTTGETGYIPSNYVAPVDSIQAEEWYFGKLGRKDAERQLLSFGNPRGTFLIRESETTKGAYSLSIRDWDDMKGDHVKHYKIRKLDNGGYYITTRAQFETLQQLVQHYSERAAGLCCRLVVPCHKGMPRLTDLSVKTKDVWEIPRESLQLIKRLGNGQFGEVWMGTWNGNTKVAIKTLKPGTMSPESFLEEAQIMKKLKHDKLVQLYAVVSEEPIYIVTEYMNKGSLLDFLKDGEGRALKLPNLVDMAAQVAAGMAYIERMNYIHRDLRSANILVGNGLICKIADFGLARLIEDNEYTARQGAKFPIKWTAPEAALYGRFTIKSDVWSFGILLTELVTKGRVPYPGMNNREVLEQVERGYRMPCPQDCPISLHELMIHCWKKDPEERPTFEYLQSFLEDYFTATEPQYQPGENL

N#Cc1cc(-c2ncnc(Nc3ccc(N4CCN(C5COC5)CC4)cc3)n2)ccc1OC1CCOCC1 [Compound 1, 5-(4-((4-(4-(oxetan-3-yl)piperazin-1-yl)phenyl)amino)-1,3,5-triazin-2-yl)-2-((tetrahydro-2H-pyran-4-yl)oxy)benzonitrile]
inhibition (off-target kinases [1]; FYN A, LanthaScreen Binding, read-out: % Inhibition Avg): 18%
inhibition (off-target kinases [1]; FYN, ATP Km app, ZLYTE, read-out: % Inhibition 1): 85%
inhibition (off-target kinases [1]; FYN, ATP Km app, ZLYTE, read-out: % Inhibition 2): 85%
inhibition (off-target kinases [1]; FYN, ATP Km app, ZLYTE, read-out: % Inhibition Avg): 85%
inhibition (off-target kinases [2]; read-out: % Inhibition 1): 98%
inhibition (off-target kinases [2]; read-out: % Inhibition 2): 96%
inhibition (off-target kinases [2]; read-out: % Inhibition Avg): 97%
inhibition (off-target kinases [3]; read-out: % Inhibition 1): 42%
inhibition (off-target kinases [3]; read-out: % Inhibition 2): 43%
inhibition (off-target kinases [3]; read-out: % Inhibition Avg): 43%
inhibition (off-target kinases [4]; CDK2/cyclin A1, LanthaScreen Binding, read-out: % Inhibition 1): 33%
inhibition (off-target kinases [4]; CDK2/cyclin A1, LanthaScreen Binding, read-out: % Inhibition 2): 39%
inhibition (off-target kinases [4]; CDK2/cyclin A1, LanthaScreen Binding, read-out: % Inhibition Avg): 36%
inhibition (off-target kinases [4]; CDK2/cyclin A2, LanthaScreen Binding, read-out: % Inhibition 1): 24%
inhibition (off-target kinases [4]; CDK2/cyclin A2, LanthaScreen Binding, read-out: % Inhibition 2): 29%
inhibition (off-target kinases [4]; CDK2/cyclin A2, LanthaScreen Binding, read-out: % Inhibition Avg): 26%
inhibition (off-target kinases [4]; CDK2/cyclin A, ZLYTE, ATP Km app, read-out: % Inhibition 1): 38%
inhibition (off-target kinases [4]; CDK2/cyclin A, ZLYTE, ATP Km app, read-out: % Inhibition 2): 36%
inhibition (off-target kinases [4]; CDK2/cyclin A, ZLYTE, ATP Km app, read-out: % Inhibition Avg): 37%
inhibition (off-target kinases [4]; CDK2/cyclin E1, LanthaScreen Binding, read-out: % Inhibition 1): 15%
inhibition (off-target kinases [4]; CDK2/cyclin E1, LanthaScreen Binding, read-out: % Inhibition 2): 17%
inhibition (off-target kinases [4]; CDK2/cyclin E1, LanthaScreen Binding, read-out: % Inhibition Avg): 16%
inhibition (off-target kinases [4]; CDK2/cyclin O, LanthaScreen, read-out: % Inhibition 1): 39%
inhibition (off-target kinases [4]; CDK2/cyclin O, LanthaScreen, read-out: % Inhibition 2): 42%
inhibition (off-target kinases [4]; CDK2/cyclin O, LanthaScreen, read-out: % Inhibition Avg): 41%
inhibition (off-target kinases [5]; read-out: % Inhibition 1): 85%
inhibition (off-target kinases [5]; read-out: % Inhibition 2): 87%
inhibition (off-target kinases [5]; read-out: % Inhibition Avg): 86%
inhibition (off-target kinases [6]; read-out: % Inhibition 1): 90%
inhibition (off-target kinases [6]; read-out: % Inhibition 2): 94%
inhibition (off-target kinases [6]; read-out: % Inhibition Avg): 92%
inhibition (off-target kinases [7]; read-out: % Inhibition 1): 4%
inhibition (off-target kinases [7]; read-out: % Inhibition 2): 9%
inhibition (off-target kinases [7]; read-out: % Inhibition Avg): 7%
